According to patent US9049866B2, “Synergistic herbicidal combination of clomazone and pethoxamid” (CHEMINOVA A/S, priority 2008, dated 2015):

Experiments:
Type in all cases: in vivo
Echinochloa crus-galli = experiment: Field test in sunflowers, control of Echinochloa crus-galli (Example 1); details: sunflower field, spraying, clomazone 90 g/ha, pethoxamid 1200 g/ha, combination 90+1200 g/ha, 55 days after application, 0 = no damage, 100 = complete destruction
Excerpt: (§1) In the Colby method, also referred to as the Limpels method, the action to be expected E for a given active ingredient combination obeys the so-called Colby formula. According to Colby, the expected action of active ingredients A+B using p+q ppm of active ingredient is:
(§2) [formula] where ppm=milligrams of active ingredient (=a.i.) per liter of spray mixture X=% action by component A using p ppm of active ingredient Y=% action by component B using q ppm of active ingredient. If the ratio R defined as the action actually observed (O) divided by the expected action (E) is >1 then the action of the combination is superadditive, i.e. there is a synergistic effect. […]
(§3) The herbicidal compounds A and B were applied in the formulation in which they are present as commercially available product. Damage by the herbicidal compositions was evaluated with reference to a scale of 0% to 100% in comparison with untreated control plots. […]
(§4) In a field of sunflowers, clomazone (rate of 90 g/ha) and pethoxamid (rate of 1200 g/ha) were applied individually and in combination (90+1200 g/ha) to different plots by spraying. 55 days after application the rate of control of various weeds was recorded. The expected control is calculated according to the Colby method.

Solanum nigrum = experiment: Field test in sunflowers, control of Solanum nigrum (Example 1); details: sunflower field, spraying, clomazone 90 g/ha, pethoxamid 1200 g/ha, combination 90+1200 g/ha, 55 days after application
Excerpt: as §1, §2, §3, §4

Mercurialis annua = experiment: Field test in sunflowers, control of Mercurialis annua (Example 2); details: sunflower field, spraying, clomazone 90 g/ha, pethoxamid 1200 g/ha, combination 90+1200 g/ha, 50 days after application
Excerpt: as §1, §2, §3
as §4, with “50” for “55”

Ambrosia artemisiifolia = experiment: Field test in sunflowers, control of Ambrosia artemisiifolia (Example 2); details: sunflower field, spraying, clomazone 90 g/ha, pethoxamid 1200 g/ha, combination 90+1200 g/ha, 50 days after application
Excerpt: as §1, §2, §3
as §4, with “50” for “55”

Viola arvensis = experiment: Oilseed rape field test, control of Viola arvensis (Example 3); details: spraying, clomazone 72, pethoxamid 1200, combination 72 + 1200 g AI/hectare, 206 days after application
Excerpt: as §1, §2, §3
In an oilseed rape field, Clomazone, and pethoxamid were applied individually and in combination to different plots by spraying. 206 days after application the rate of control of Viola arvensis was recorded. The expected control is calculated according to the Colby method.

Galium aparine = experiment: Oilseed rape field test, control of Galium aparine (Example 4); details: spraying, clomazone 72, pethoxamid 1200, combination 72 + 1200 g AI/hectare, 64 days after application
Excerpt: as §1, §2, §3
In an oilseed rape field, Clomazone, and pethoxamid were applied individually and in combination to different plots by spraying. 64 days after application the rate of control of Galium aparine was recorded. The expected control is calculated according to the Colby method.

SMILES	Control observed (O) % (Echinochloa crus-galli) [%]	Control observed (O) % (Solanum nigrum) [%]	Control observed (O) % (Mercurialis annua) [%]	Control observed (O) % (Ambrosia artemisiifolia) [%]	Control observed (O) % (Viola arvensis) [%]	Control observed (O) % (Galium aparine) [%]
CC1(C)CON(Cc2ccccc2Cl)C1=O [Clomazone, clomazone]	50	37	13	10	0	40
CCOCCN(C(=O)CCl)C(=C(C)C)c1ccccc1 [Pethoxamid, pethoxamid]	47	47	27	10	50	0
